Article PMC9079931 (RSC Advances, 2018)

Assays:
[1] = cited from earlier work
[2] = tested on: human colon cancer cell line Caco-2; test: In vitro cytotoxicity, MTT assay; assay type: cell-based; conditions: Caco-2, 24 h, 0.001–100 μg ml^−1
[3] = cited from earlier work; remark: listed apart in the source
[4] = cited from earlier work; remark: listed apart in the source

SMILES	Acute toxicity [1]	Cell viability of Caco-2 cells versus concentration [2]	Solubility of DIC in water [3]	Oral acute toxicity dose [4]
N#CC(c1ccc(Cl)cc1)c1c(Cl)cc(-n2ncc(=O)[nH]c2=O)cc1Cl (stereo not shown) [DIC, Diclazuril]	low acute toxicity	gradually decreased with the increase of free drug concentration	0.69 µg/mL	
OB(O)c1ccccc1 [phenylboronic acid]				higher than 900 mg kg^−1 body weight
